Data: publication PMC8954350, “Non-Canonical Cannabinoid Receptors with Distinct Binding and Signaling Properties in Prostate and Other Cancer Cell Types Mediate Cell Death” (International Journal of Molecular Sciences, 2022)

Tests used:
human CB1 receptors = target: T1, human CB1 receptors (Homo sapiens, UniProt P21554); assay: Competition binding, CHO-hCB1 membranes; conditions: membranes from CHO cells stably expressing human CB1
T1 construct: host or cells: CHO
Protocol: (§1) The assay was performed as previously detailed. […] All binding reactions were conducted in triplicate, in a final volume of 1 mL, and, following mixing, were incubated for 20 min in a 37 °C water bath to achieve equilibrium. After incubation, reactions were terminated by rapid vacuum filtration and processed for radioactivity, as detailed in Section 4.5.1.
(§2) Curve-fitting and all statistical analyses were performed using GraphPad Prism® v8.0g (GraphPad Software, Inc.; San Diego, CA, USA). […] For CBR screening studies, a one-sample t-test was performed to determine differences from 100% (e.g., to quantify compounds producing displacement), followed by a one-way ANOVA and Tukey’s post hoc tests to compare displacement produced by all drugs. […] To compare specific CBR affinity (Ki) between ligands, non-linear regression analysis was employed to determine experimental IC50 values from competition receptor binding assays, which were then converted to Ki values using the Cheng–Prusoff equation [35]. […] For LDH release, ATP-dependent cell viability and JC-1 staining assays, drug effects were first analyzed by a one-sample t-test to determine differences from 0 or 100% (vehicle), followed by a one-way ANOVA and Dunnett’s post hoc test to compare all means. […]

human CB2 receptors = target: T2, human CB2 receptors (Homo sapiens, UniProt P34972); assay: Competition binding, CHO-hCB2 membranes; conditions: membranes from CHO cells stably expressing human CB2
T2 construct: expressed in transfected cells
Protocol: as §1, §2

[1] = test system: CBRs expressed in C6-glioma cells; assay: [^3H]CP-55,940 competitive binding screen, C6-glioma membranes; design: species or system mouse; conditions: 1 μM ligand, 0.2 nM radioligand
Protocol: (§3) The assay was conducted as previously detailed. […] All binding reactions were conducted in triplicate, in a final volume of 1 mL, and, following mixing, were incubated for 20 min in a 37 °C water bath to achieve equilibrium. After incubation, reactions were terminated by rapid vacuum filtration through Whatman GF/B glass fiber filters (Brandel; Gaithersburg, MD, USA), followed by three washes of 4 mls of ice-cold filtration buffer (50 mM Tris, pH 7.4, and 0.05% bovine serum albumin). Samples were punched out from filter papers into scintillation vials, to which 4 mls of ScintiverseTM-BDR cocktail scintillation fluid (Fisher Scientific; Hampton, NH, USA) was added. Filters were incubated at room temperature for 24 h in scintillation fluid, vortexed, and radioactivity (measured as DPMs) was quantified via a liquid scintillation spectrophotometer (Tri Carb 2100 TR Liquid Scintillation Analyzer, Packard Instruments, Meriden, CT, USA).

[2] = test system: CBRs expressed in PC-12 cells; assay: [^3H]CP-55,940 competitive binding screen, PC-12 membranes; design: species or system rat; conditions: 1 μM ligand, 0.2 nM radioligand
Protocol: as §3

[3] = test system: CBRs expressed in HeLa cells; assay: [^3H]CP-55,940 competitive binding screen, HeLa membranes; design: species or system human; conditions: 1 μM ligand, 0.2 nM radioligand
Protocol: as §3

[4] = test system: CBRs expressed in PC-3 cells; assay: [^3H]CP-55,940 competitive binding screen, PC-3 membranes; design: species or system human; conditions: 1 μM ligand, 0.2 nM radioligand
Protocol: as §3

[5] = test system: CBRs expressed in DU-145 cells; assay: [^3H]CP-55,940 competitive binding screen, DU-145 membranes; design: species or system human; conditions: 1 μM ligand, 0.2 nM radioligand
Protocol: as §3

[6] = test system: CBRs expressed in C6-glioma cells; assay: [^3H]WIN-55,212-2 competitive binding screen, C6-glioma membranes; design: species or system mouse; conditions: 1 μM ligand, 1 nM radioligand
Protocol: as §3

[7] = test system: CBRs expressed in HeLa cells; assay: [^3H]WIN-55,212-2 competitive binding screen, HeLa membranes; design: species or system human; conditions: 1 μM ligand, 1 nM radioligand
Protocol: as §3

[8] = target: non-canonical CBRs expressed in PC-12; assay: Homologous receptor binding, PC-12; design: species or system rat; conditions: homologous competition with [^3H]WIN-55,212-2 (1 nM), read-out: affinity (KD)
Protocol: (§4) All binding reactions were conducted in triplicate, in a final volume of 1 mL, and, following mixing, were incubated for 20 min in a 37 °C water bath to achieve equilibrium. After incubation, reactions were terminated by rapid vacuum filtration and processed for radioactivity, as detailed in Section 4.5.1.
(§5) Curve-fitting and all statistical analyses were performed using GraphPad Prism® v8.0g (GraphPad Software, Inc.; San Diego, CA, USA). For qRT-PCR experiments, a one-way ANOVA, followed by Dunnett’s test as a post hoc test was utilized to compare fold change of PC-3 and DU-145 cancer cells to an arbitrary value of 1, set to the amount of mRNA transcribed from a human normal prostate control. For CBR screening studies, a one-sample t-test was performed to determine differences from 100% (e.g., to quantify compounds producing displacement), followed by a one-way ANOVA and Tukey’s post hoc tests to compare displacement produced by all drugs. […] For LDH release, ATP-dependent cell viability and JC-1 staining assays, drug effects were first analyzed by a one-sample t-test to determine differences from 0 or 100% (vehicle), followed by a one-way ANOVA and Dunnett’s post hoc test to compare all means. […]

[9] = target: non-canonical CBRs expressed in HeLa; assay: Homologous receptor binding, HeLa; design: species or system human; conditions: homologous competition with [^3H]WIN-55,212-2 (1 nM), read-out: affinity (KD)
Protocol: as §4, §5

[10] = target: non-canonical CBRs expressed in DU-145; assay: Homologous receptor binding, DU-145; design: species or system human; conditions: homologous competition with [^3H]WIN-55,212-2 (1 nM), read-out: affinity (KD)
Protocol: as §4, §5

[11] = test system: canonical human CB1Rs (CHO-hCB1); design: method as in PMID 34592231; conditions: 1 μM ligand, 0.2 nM radioligand, CHO-hCB1 membranes; cited from earlier work
[12] = test system: canonical human CB1Rs (CHO-hCB1); design: method as in PMID 34592231; conditions: 1 μM ligand, 1 nM radioligand, CHO-hCB1 membranes; cited from earlier work
[13] = test system: canonical human CB2Rs (CHO-hCB2); design: method as in PMID 34592231; conditions: 1 μM ligand, 1 nM radioligand, CHO-hCB2 membranes; cited from earlier work

T1 sequence (P21554 whole entry): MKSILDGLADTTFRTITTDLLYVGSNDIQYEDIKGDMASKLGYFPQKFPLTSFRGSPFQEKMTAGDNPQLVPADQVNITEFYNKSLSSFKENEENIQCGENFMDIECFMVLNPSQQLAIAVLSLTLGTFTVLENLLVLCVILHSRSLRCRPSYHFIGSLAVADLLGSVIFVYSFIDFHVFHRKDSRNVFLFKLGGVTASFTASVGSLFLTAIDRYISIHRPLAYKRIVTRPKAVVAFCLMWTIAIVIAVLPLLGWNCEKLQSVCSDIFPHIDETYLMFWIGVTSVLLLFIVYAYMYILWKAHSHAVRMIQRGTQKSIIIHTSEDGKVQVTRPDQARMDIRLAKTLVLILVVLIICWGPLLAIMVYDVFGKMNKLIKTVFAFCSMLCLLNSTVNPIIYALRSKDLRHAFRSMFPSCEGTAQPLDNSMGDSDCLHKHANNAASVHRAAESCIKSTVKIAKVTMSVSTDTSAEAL
T2 sequence (P34972 whole entry): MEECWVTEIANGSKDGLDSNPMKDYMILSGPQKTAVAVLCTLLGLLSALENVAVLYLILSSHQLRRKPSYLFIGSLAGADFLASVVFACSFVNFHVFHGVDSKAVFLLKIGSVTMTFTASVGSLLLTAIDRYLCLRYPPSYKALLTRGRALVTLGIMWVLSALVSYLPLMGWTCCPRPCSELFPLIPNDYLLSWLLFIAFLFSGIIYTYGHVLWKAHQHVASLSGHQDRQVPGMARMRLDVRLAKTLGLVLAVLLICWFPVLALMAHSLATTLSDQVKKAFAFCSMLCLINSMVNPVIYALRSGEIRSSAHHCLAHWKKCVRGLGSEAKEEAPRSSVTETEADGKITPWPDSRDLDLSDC

SMILES | Ki (human CB1 receptors) [nM] | Ki (human CB2 receptors) [nM] | displacement of [^3H]CP-55,940 [1] | displacement of [^3H]CP-55,940 [2] | displacement of [^3H]CP-55,940 [3] | displacement of [^3H]CP-55,940 [4] | displacement of [^3H]CP-55,940 [5] | displacement of [^3H]WIN-55,212-2 (Figure 1B) [6] | displacement of [^3H]WIN-55,212-2 (Figure 1B) [7] | Kd [8] [nM] | Kd [9] [nM] | Kd [10] [nM] | displacement of [^3H]CP-55,940 [11] | displacement of [^3H]WIN-55,212-2 (Figure 1B) [12] | displacement of [^3H]WIN-55,212-2 (Figure 1B) [13]
COc1ccc2c(c1)c(CCN1CCOCC1)c(C)n2C(=O)c1cccc(Cl)c1Cl [GW-405833] | 747 | 51 | – | – | – | – | – | – | – | – | – | – | – | – | –
Cc1c(C(=O)c2cccc3ccccc23)c2cccc3c2n1[C@H](CN1CCOCC1)CO3 [WIN-55,212-2] | – | – | neither the non-selective CBR ligand CP-55,940 nor WIN-55,212-2 produced significant displacement | neither the non-selective CBR ligand CP-55,940 nor WIN-55,212-2 produced significant displacement | neither the non-selective CBR ligand CP-55,940 nor WIN-55,212-2 produced significant displacement | neither the non-selective CBR ligand CP-55,940 nor WIN-55,212-2 produced significant displacement | neither the non-selective CBR ligand CP-55,940 nor WIN-55,212-2 produced significant displacement | significantly displaced | significantly displaced | 12.6 ± 2.7 | 7 ± 1.6 | 4.3 ± 0.89 | produced near or complete displacement | produced near or complete displacement | produced near or complete displacement
